Assay results reported in patent publication US6284726A, “Inhibition of angiogenesis by peptide analogs of high molecular weight kininogen domain 5” (Temple University - Of The Commonwealth System of Higher …, priority 2000, dated 2001).

Assays:
HUVEC cells = assay: CyQUANT proliferation assay of bFGF-stimulated HUVEC; type: cell-based, human; details: 10 ng/ml bFGF; for Proliferation % Inhibition: 48 hours
Procedure: Cell proliferation was determined by using CyQUANT cell proliferation assay kit from Molecular Probes (catalog #C-7026).
HUVEC cells (50,000/well) in a 96 well microtiter plate were stimulated with 10 ng/ml bFGF in serum-free, M199 growth medium with or without HK peptide for 48 hours at 37° C. in a CO2 incubator. Cells were washed with serum-free medium and frozen at -40° C. Frozen cells were thawed and lysed with a lysis buffer containing the CyQUANT GR dye. Fluorescence was measured using a Cytofluor II Fluorescence Multi-well plate reader with excitation 485 nm and emission with 530 nm.
The percent inhibition of proliferation at a specific peptide concentration was determined for some peptides. For other peptides, an IC50 was calculated from a curve plotting inhibitor concentration versus percent inhibition over a inhibition range of ten to ninety percent inhibition.

HUVECs = assay: Transwell migration of endothelial cells to vitronectin; type: cell-based, human; details: 0.27 μM; four hours at 37° C.
Procedure: The lower side of 8 μm pore transwell inserts (Costar, Inc.) were coated with 2 μg/ml of vitronectin for one hour and blocked with 2% bovine serum albumin in phosphate buffered saline for one hour. The inserts were then placed into 24 well culture dishes containing 500 μl migration buffer in the lower chamber. Twenty-five thousand HUVECs in 50 μl of migration buffer were added to the upper chamber of duplicate inserts containing 50 μl of a solution of 50 μg/ml GST-SEQ ID NO. 10 peptide in migration buffer (Herpes buffered M199 medium containing 1% BSA, […], […] and 0.2 μM MnCl2) or migration buffer alone. Cells were allowed to migrate from the upper to the lower chamber for four hours at 37° C. Nonmigratory cells were removed from the upper surface by wiping the upper side with an absorbent tip. Cells which migrated to the lower side of the transwell insert were then fixed for 15 minutes with 3.7% paraformaldehyde in phosphate buffered saline and stained with a 2% crystal violet solution. After extensive water washing to remove excess crystal violet, the number of cells which had migrated were counted in three representative high power (200X) fields per inset.

[1] = system: chorioallantoic membrane (CAM) of embryonated chicken eggs; assay: In ovo chick chorioallantoic membrane (CAM) angiogenesis assay; type: in vivo; details: for inhibition of bFGF-stimulated angiogenesis (blood vessel branch points): bFGF-saturated filter disc on CAM, peptide 0-25 μg in 25 μl saline, 0.27 μM, applied 24 hours later
Text: New vessels, quantified by blood vessel branching, occurred in response to bFGF, VEGF, or a combination of both. Accordingly, ten day old embryonated chicken eggs were candled to illuminate blood vessels under the shell. An area with a minimum of small blood vessel was identified. The chorioallantoic membrane (CAM) was dropped away from the egg shell in this area by grinding a small hole in the mineralized shell and applying pressure to the underlying inner shell membrane. This caused an air pocket to shift from the wide end of the egg to the identified area and forced a circular region of the CAM approximately 2 cm in diameter to drop away from the shell. A window was cut in the egg shell. A cortisone acetate pre-treated filter disc 5 mm in diameter that was saturated in 1 μg/mi bFGF, a combination of bFGF and VEGF, or saline and was placed on the CAM. The window in the shell was sealed with adhesive tape and the egg was incubated for four days. Peptide GST-SEQ ID NO:10 (0-25 μg in 25 μI saline; 0.27 μM) was applied to the saturated filter 24 hours later and was applied to the stimulated CAM. The CAM was then harvested on the fourth day of stimulation. Data were evaluated in terms of average number of blood vessel branch points per treatment group as well as percent of control using a video camera attached to a personal computer. Under the conditions of the assay, peptide GST-SEQ ID NO:10 inhibited bFGF-stimulated angiogenesis by 97% and bFGF/VEGF-stimulated angiogenesis by 94%. There was no inhibition of bFGF-stimulated angiogenesis by GST alone (<10% inhibition).

Substance: GST-His(441)-Ser(626) [GST-SEQ ID NO: 8]
- Proliferation % Inhibition (HUVEC cells; peptide conc. 0.39 μM): 100%

Substance: GST-Lys(420)-Ser(513) [GST-SEQ ID NO: 10]
- inhibition of HUVEC migration to vitronectin (HUVECs): 100%
- IC50 (HUVEC cells; serum-free M199, 48 hours, read-out: IC50 (inhibition of endothelial cell proliferation)): < 30 nM
- Proliferation % Inhibition (HUVEC cells; peptide conc. 0.27 μM): 100%
- inhibition of bFGF-induced angiogenesis, as seen in FIG. 1D (in words) ([1]; bFGF plus GST fusion peptide, CAM): substantial inhibition
- inhibition of bFGF-stimulated angiogenesis (blood vessel branch points) ([1]; harvested on fourth day): 97%
- inhibition of bFGF/VEGF-stimulated angiogenesis (blood vessel branch points) ([1]; filter disc with combination of bFGF and VEGF on CAM, peptide 0.27 μM applied 24 hours later, harvested on fourth day): 94%

Substance: GST-Lys(420)-Asp(474) [GST-SEQ ID NO: 5]
- Proliferation % Inhibition (HUVEC cells; peptide conc. 0.36 μM): 94%

Substance: glutathione-S-transferase [GST, reference compound]
- inhibition of bFGF-stimulated angiogenesis (blood vessel branch points) ([1]; harvested on fourth day): < 10%

Substance: GST-Glu(448)-Ser(626) [GST-SEQ ID NO: 12]
- Proliferation % Inhibition (HUVEC cells; peptide conc. 0.35 μM): 65%
